Data set [1] relates to ovariectomized (OVX) rats, lumbar spine. The experiment in a line: Lumbar vertebral bone mineral measurements (DXA) in OVX rats, combination and sequential treatment. Type of data set: in vivo, female Sprague-Dawley rats. On the procedure:
One hundred and four female Sprague-Dawley rats (Charles River, Wilmington, Mass.) at 12 months of age were sham-operated or ovariectomized (OVX) at month 0. Three months post-surgery, OVX rats were treated with either Prostaglandin E2 (PGE2), a known anabolic bone agent, at 3 mg/kg/day (subcutaneously injection), or PGE2 at 3 mg/kg/day (subcutaneously injection) combined with droloxifene (DRO) at 10 mg/kg/day (orally) for 2 months. Thereafter, the PGE2 treatment was withdrawn and the rats were then treated with either vehicle (10% alcohol in saline) or DRO (10 mg/kg/day, orally) for another one and a half months as described in the following.
Group VIII: Eight OVX rats were subcutaneously injected with 3 mg/kg/day of PGE2 from months 3 to 5, and autopsied at month 5.
Group IX: Eight OVX rats were subcutaneously injected with 3 mg/kg/day of PGE2 from months 3 to 5, and vehicle from 5 to 6.5 months, and then autopsied at month 6.5.
Group X: Eight OVX rats were subcutaneously injected with 3 mg/kg/day of PGE2 from months 3 to 5, and 10 mg/kg/day of DRO orally from 5 to 6.5 months, and then autopsied at month 6.5.
Group XI: Eight OVX rats were subcutaneously injected with 3 mg/kg/day of PGE2 and 10 mg/kg/day of DRO orally from months 3 to 5, and then autopsied at month 5.
Group XII: Eight OVX rats were subcutaneously injected with 3 mg/kg/day of PGE2 and 10 mg/kg/day of DRO orally from months 3 to 5, and vehicle from months 5 to 6.5, then autopsied at month 6.5.
Group XIII: Eight OVX rats were subcutaneously injected with 3 mg/kg/day of PGE2 and 10 mg/kg/day of DRO orally from months 3 to 5, and DRO alone from months 5 to 6.5, then autopsied at month 6.5.
Both PGE2 (Cayman Chemical Co., Ann Arbor, Mich.) or droloxifene (Pfizer Inc. Groton, Conn.) powder was first dissolved in 100% ethanol and further diluted with saline into desired concentrations (final ethanol concentration was 10%). A PGE2 solution was daily injected subcutaneously on the back at 1 ml/kg. A droloxifene solution was given daily p.o. at 1 ml/rat.
Dual energy x-ray absorptiometry (QDR 1000/W, Hologic, Inc., Waltham, Mass.) equipped with a “Regional High Resolution Scan” software (Hologic, Inc., Waltham, Mass.) was used to determined the bone area, bone mineral content (BMC), and bone mineral density (BMD) of whole lumbar spine and each of the six lumbar vertebrae (LV1-6) in the anesthetized rats. The rats were anesthetized by injection (i.p.) of 1 ml/kg of a mixture of ketamine/rompun (ratio of 4 to 3), and then placed on the rat platform. The scan field sized was 6×1.9 cm, resolution was 0.0254×0.0127 cm, and scan speed was 7.25 mm/sec. The whole lumbar spine scan image was obtained and analyzed. Bone area (BA), and bone mineral content (BMC) were determined, and bone mineral density was calculated (MBC divided by BA) for the whole lumbar spine and each of the six lumbar vertebrae (LV1-6).

The test system of another data set is Ovariectomized Rats. The note with it: cited from earlier work.
The subject of data set [2] is Osteogenic Female Rat Skeleton. The conditions noted are these: risedronate administered after discontinuing PGE2; cited from earlier work.
Setting [3] is: OVX rats, PGE2 3 mg/kg/day months 3 to 5, then vehicle months 5 to 6.5.

Consider four molecules from patent US7255984B2, “Combination therapy for osteoporosis” (Pfizer Inc., priority 1996, dated 2007).

Turning to `CC/C(=C(/c1ccc(OCCN(C)C)cc1)c1cccc(O)c1)c1ccccc1` [DRO, phenol, 3-[1-[4[2-(dimethylamino)ethoxy]phenyl]-2-phenyl-1-butenyl]-, (E)-], the “Effect of DRO on the anabolic effects of PGE2” value in data set [1] (OVX rats, DRO 10 mg/kg/day orally combined with PGE2 3 mg/kg/day s.c. for 2 months) is given as “did not blunt”. Moreover, the “Maintenance of PGE2-restored bone after discontinuation of PGE2” value in data set [1] (OVX rats, PGE2 months 3 to 5, then DRO 10 mg/kg/day orally months 5 to 6.5) is recorded as “completely maintained”. Also, in data set [1] (OVX rats, PGE2 plus DRO months 3 to 5, then DRO alone 10 mg/kg/day months 5 to 6.5), the “Bone loss in the lumbar spine when PGE2 was withdrawn and DRO continued for another 1.5 months” value is “no bone loss”.
`CCCCC[C@H](O)/C=C/[C@H]1[C@H](O)CC(=O)[C@@H]1C/C=C\CCCC(=O)O` [PGE2, Prostaglandin E2]: in data set [1] (setting [3]), the “BMC of LV2 upon PGE2 cessation of treatment” value is on record as “significant decrease”; the “BMD of LV1, LV2, and LV3 upon PGE2 cessation of treatment” value is on record as “significant decrease”. Besides, the “BMC and BMD of whole lumbar spine and lumbar vertebrae versus sham control levels” value in data set [1] (rats 3 months post-OVX, treated for 2 months (months 3 to 5), PGE2 3 mg/kg/day s.c., DRO 10 mg/kg/day orally) is recorded as “completely restored”.
As to `O=C(c1ccc(OCCN2CCCCC2)cc1)c1c(-c2ccc(O)cc2)sc2cc(O)ccc12` [raloxifene, 6hydroxy-2-(4-hydroxyphenyl)-3-[4-(2-piperidinoethoxy)benzoyl]benzo[b]thiophene], the “Action on bone and lipids” value in the data set on Ovariectomized Rats (compared with estrogen) is “mimics the favorable action of estrogen”. Further, the Uterine stimulatory effect entry with Ovariectomized Rats (unlike estrogen) is on record as “minimal”.
In the case of `O=P(O)(O)C(O)(Cc1cccnc1)P(=O)(O)O` [risedronate], the “Time for which most of the new cancellous and cortical bone induced by PGE2 is maintained after discontinuing PGE2” value in data set [2] is listed as “at least 60 days”.
